# Reference: patent US9011853B2, “B7-H4 fusion proteins and methods of use thereof” (Amplimmune, Inc., priority 2009, dated 2015)
# What was measured:
# Format in all cases: in vivo, mouse
# DBA/1J mice = experiment: CIA therapeutic model, arthritis score; conditions: 300 μg IP 3 times a week for 4 weeks from CII rechallenge (day 21); days 38 and beyond; vs vehicle (FIG. 5)
# Procedure: FIG. 4 outlines a brief experimental design of the CIA therapeutic study. DBA/1J mice were first immunized with chicken CII emulsified in CFA. Twenty one days later, the mice were rechallenged with CII emulsified in IFA and randomized into 2 groups. Group 1 (n=10) were IP injected with 300 μg of B7-H4-Ig, 3 times a week for 4 weeks. Group 2 (n=10) were injected with vehicle. Mouse paws/joints were monitored and scored 3 times a week.
# [1] = system: TNFα, IL6, and chemokine (MCP-1); experiment: Plasma proinflammatory molecules in CIA mice, BD Cytometric Bead Array
# Text: Plasma was collected on day 33 from mice treated as described in Example 3 and analyzed for proinflammatory molecules, e.g. TNFα, IL6, and chemokine (MCP-1) using the BD™ Cytometric Bead Array (CBA) Flex Sets.
# [2] = system: lymph node cells and splenocytes; experiment: In vitro antigen-specific recall responses of cells from treated R-EAE mice
# Procedure: Draining lymph nodes (axillary, brachial, and inguinal) were harvested, and single cell suspensions were obtained by mashing through sterile 60-mesh wire screens. In 96-well microtiter plates, 5×10^5 erythrocyte-free (Tris-NH4Cl-treated) lymph node cells per well were incubated in supplemented culture medium with or without antigen at 37° C. in 7% CO2 for […] and then pulsed with 1 μCi/well of [^3H]-Thymidine for the final 48 h of culture. Proliferation was determined by uptake of [^3H]-Thymidine detected using a Topcount Microplate Scintillation Counter (Packard Instruments, Meridan, Conn.). Results are expressed as the mean of triplicate cultures from individual animal±SEM. Supernatants were collected at 72 hr for cytokine analysis. Cytokine measurements were performed using the Mouse Cytokine 10-Plex system and Luminex Liquidchip analyzer (Qiagen, Valencia, Calif.) or ELISA.
# Lymph nodes were isolated from the murine B7-H4-Ig and Control IgG injected EAE mice as described above. T cells were harvested and were elicited with PLP139-151, the disease inducing dominant epitope, and PLP178-191, the spread epitope-specific peptide, in vitro. [^3H]-thymidine was added to the in vitro stimulation assay to analyze T cell proliferation.
# Lymph nodes were isolated from Control IgG and murine B7-H4-Ig treated mice as described above. T cells were harvested and immune responses were elicited with PLP139-151, the disease inducing dominant peptide, and PLP178-191, the spread epitope peptide, in vitro. Supernatant was collected and analyzed for IFN-γ via commercially available ELISA kit.
# Draining lymph nodes were harvested from the animals, and single cell suspensions prepared as described above and reactivated in vitro in the presence of anti-CD3 (0.1-10 μg/mL), PLP139-151 (1-20 μg/mL), or OVA323-339 (1-20 μg/mL). T cell proliferation in vitro was analyzed by [^3H] thymidine incorporation.
# The impact of B7-H4-Ig treatment on epitope spreading was also examined. To do so, spleens and draining lymph nodes were collected from the same mice that were analyzed for the number and phenotype of CD4^+ T cells. SJL mouse were immunized with 50 μg of PLP139-151 peptide emulsified in CFA. Mice were treated B7-H4-Ig during remission: 60 or 100 ug per dose, 3 doses/wk, for 2 weeks (6 doses). On Day 35 total splenocytes and lymph node cells (5×10^5 cells per 200 ul culture) were activated in separate wells per mouse in the presence of anti-CD3 (1 ug/ml), PLP139-151 or PLP178-191 (20 μg/mL). At 24 hours following the initiation of culture, 1 μCi of ^3[H] tritiate thymidine was added to each well and wells were analyzed at 72 hours post the initiation of culture. This presented as the mean CPM. […] Therefore, B7-H4-Ig treatment during remission of ongoing R-EAE in SJL mice appears to decrease epitope spreading via an increase in the number of Treg cells. […] The higher dose appears more efficacious to lower the disease score at later time points (beyond Day 42 post disease initiation).
# [3] = Day 35 splenocytes and lymph node cells, treated during remission 60 or 100 ug per dose, 3 doses/wk, 2 weeks (FIGS. 45A, 45B)
substance,measurement,setting,value
"B7-H4-Ig: B7-H4 extracellular domain fused to Ig Fc; bare label is the human protein in Example 3, murine protein in Examples 1, 2, 5, 7-11",overall arthritis scores,DBA/1J mice,significantly lower than the ones of vehicle injected CIA mice
same,plasma TNFα production,"[1]; plasma day 33, vs vehicle control (FIG. 17A)",significantly reduced
same,plasma IL6 production,"[1]; plasma day 33, vs vehicle control (FIG. 17B)",significantly reduced
same,plasma MCP-1 production,"[1]; plasma day 33, vs vehicle control (FIG. 17C)",significantly reduced
same,proliferative response to PLP139-151,[2]; [3],decreased the proliferative response
same,proliferative response to PLP178-191,[2]; [3],decreased the proliferative response
same,IFN-γ production in ex vivo T cell recall with PLP139-151 peptide,[2]; administered on Day 0 (FIG. 38),specific inhibition of immune response to PLP139-151 peptide
same,T cell proliferation when stimulated with anti-CD3,"[2]; draining lymph nodes, Day 10 study (FIG. 40)",robust T cell proliferation
same,T cell response to PLP139-151 peptide stimulation ([3H] thymidine),"[2]; draining lymph nodes, Day 10 study, both 3 and 15 mg/kg doses (FIG. 40)",little to no response
